Measured values from publication PMC3320663 (Chemmedchem, 2011).
Several values for one entry are separate records, joined by “and”; a condition that tells them apart may be missing. Identical values can stand only once. Like-named read-outs stand apart in the source and are kept apart here.

Key:
[1] = tested on: TbTryS single knockout (SKO) cell line; conditions: read-out: EC50 SKO cell line; cited from earlier work
[2] = tested on: trypanothione levels in T. brucei parasites; conditions: of wild-type levels; 2×EC50 for 72 h; cited from earlier work
[3] = tested on: bloodstream form T. brucei; test: Trypanosomal cell proliferation assay; type: cell-based; conditions: Trypanosoma brucei, read-out: Tb EC50
[4] = tested on: TbTryS overexpressing (OE) cell line; conditions: read-out: EC50 OE cell line; cited from earlier work
[5] = Human cell counter-screen proliferation assay; type: cell-based; conditions: MRC5 fibroblasts
[6] = tested on: wild-type T. brucei cells; conditions: read-out: EC50 wild-type cell line; cited from earlier work
TbTryS = molecular target: T1, TbTryS (Trypanosoma brucei, UniProt Q586P2); test: Trypanothione synthetase; type: biochemical; conditions: for LE (ligand efficiency): calculated as −0.6×ln(IC50)/(heavy atom count)
T1 sequence (Q586P2 1-627): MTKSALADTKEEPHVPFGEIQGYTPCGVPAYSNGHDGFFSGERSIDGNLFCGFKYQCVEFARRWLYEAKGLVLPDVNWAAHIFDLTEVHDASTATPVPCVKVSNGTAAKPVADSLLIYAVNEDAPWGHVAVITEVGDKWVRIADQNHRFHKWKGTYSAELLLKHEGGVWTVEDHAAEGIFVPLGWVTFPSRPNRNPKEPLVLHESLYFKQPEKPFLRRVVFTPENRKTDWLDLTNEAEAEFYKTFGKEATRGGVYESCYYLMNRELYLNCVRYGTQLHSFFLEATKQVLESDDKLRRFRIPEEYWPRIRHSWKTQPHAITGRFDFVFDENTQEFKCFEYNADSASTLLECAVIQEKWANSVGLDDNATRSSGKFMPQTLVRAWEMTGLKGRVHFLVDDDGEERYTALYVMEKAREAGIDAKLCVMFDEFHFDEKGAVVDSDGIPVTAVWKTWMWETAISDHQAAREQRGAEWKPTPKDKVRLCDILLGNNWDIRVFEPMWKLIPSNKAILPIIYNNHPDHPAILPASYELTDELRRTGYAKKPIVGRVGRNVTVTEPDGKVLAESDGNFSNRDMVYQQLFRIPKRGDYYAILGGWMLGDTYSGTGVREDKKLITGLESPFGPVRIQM

[7] = tested on: bloodstream form T. brucei; conditions: read-out: cell potency, cited from earlier work
[8] = In vitro metabolic clearance assay; type: in vitro ADME, human; conditions: for metabolic stability in words: pooled human liver microsomes; for Cli (intrinsic clearance): pooled human microsomes

CN(C)CCCNC(=O)Cn1nc(-c2cccc(F)c2)c2ccccc21 [Compound 84, N-(3-(Dimethylamino)propyl)-2-(3-(3-fluorophenyl)-1H-indazol-1-yl)acetamide]
EC50 [1]: 1.2 µM | trypanothione levels [2]: < 10% | EC50 [3]: 5.4 µM | EC50 [4]: 23.3 µM | EC50 [5]: 20 µM | EC50 [6]: 7.1 µM | in vitro enzyme potency improved over the best HTS hits (TbTryS): > 10 fold | improvement in potency over the analogous piperazines (TbTryS; 83 vs 90, 84 vs 80): 18 fold | LE (ligand efficiency) (TbTryS): 0.39

O=C(Cn1nc(-c2cccc(F)c2)c2ccccc21)N1CCCCC1 [Compound 89, 2-(3-(3-Fluorophenyl)-1H-indazol-1-yl)-1-(piperidin-1-yl)ethanone]
EC50 [1]: 6.9 µM | trypanothione levels [2]: < 10% | EC50 [3]: 5.1 µM | EC50 [4]: 44.5 µM | EC50 [5]: > 50 µM | EC50 [6]: 20.4 µM | IC50 (TbTryS; TbTryS IC50): 0.14 µM | IC50 (TbTryS; TbTryS IC50, values in running text): 0.135 µM | LE (ligand efficiency) (TbTryS): 0.38

NCCCC(N)(C(=O)O)C(F)F (centres unmarked) [eflornithine]
EC50 ([7]; drugs in clinical use): 22 µM

O=C(Cn1nc(C(F)(F)F)c2c1CCCC2)NCc1ccc(Cl)cc1 [Compound 26, N-(4-Chlorobenzyl)-2-(3-(trifluoromethyl)-4,5,6,7-tetrahydro-1H-indazol-1-yl)acetamide]
metabolic stability in words [8]: reasonably metabolically stable | Cli (intrinsic clearance) [8]: 3.0 mL/min/g | EC50 [3]: 14 µM | EC50 [5]: > 50 µM | IC50 (TbTryS; TbTryS IC50): 3 µM

CC(C)(C)C(=O)Cn1nc(-c2cccc(F)c2)c2ccccc21 [Compound 71, 1-(3-(3-Fluorophenyl)-1H-indazol-1-yl)-3,3-dimethylbutan-2-one]
metabolic stability in words [8]: reasonably metabolically stable | Cli (intrinsic clearance) [8]: 1.6 mL/min/g | EC50 [3]: 7.9 µM | EC50 [5]: > 50 µM | in vitro enzyme potency improved over the best HTS hits (TbTryS): > 10 fold | IC50 (TbTryS; TbTryS IC50): 0.09 µM | LE (ligand efficiency) (TbTryS): 0.42

CC(C)(C)S(=O)(=O)Cc1nc(-c2cccc(Cl)c2)cs1 [Compound 8, 2-((tert-Butylsulfonyl)methyl)-4-(3-chlorophenyl)thiazole]
metabolic stability in words [8]: reasonably metabolically stable | Cli (intrinsic clearance) [8]: 0.9 mL/min/g | EC50 [3]: 22 µM | EC50 [5]: > 50 µM | IC50 (TbTryS; TbTryS IC50): 0.4 µM and 0.41 µM

Nc1nc(N)nc(Nc2ccc([As]3SCC(CO)S3)cc2)n1 (centres unmarked) [melarsoprol]
EC50 ([7]; drug in clinical use): 0.008 µM

CC1CS(=O)(=O)CCN1/N=C/c1ccc([N+](=O)[O-])o1 (centres unmarked) [nifurtimox]
EC50 ([7]; drugs in clinical use): 2 µM

CC(C)(C)C(=O)Cn1nnc(-c2cc(F)cc(F)c2)n1 [Compound 19, 1-(5-(3,5-Difluorophenyl)-2H-tetrazol-2-yl)-3,3-dimethylbutan-2-one]
IC50 (TbTryS; TbTryS IC50): 1.9 µM

3-(tert-Butylsulfonylmethyl)-1-(3-fluorophenyl)-1H-indazole [Compound 73]
LE (ligand efficiency) (TbTryS): 0.41 | IC50 (TbTryS; read-out: TbTryS IC50): 0.08 µM

Cc1cc(Cn2nc(-c3cccc(F)c3)c3ccccc32)no1 [Compound 79, 3-((3-(3-Fluorophenyl)-1H-indazol-1-yl)methyl)-5-methylisoxazole]
IC50 (TbTryS; TbTryS IC50): > 100 µM

CCN(CC)C(=O)Cn1nc(C(F)(F)F)c2c1CCCC2 [Compound 35, N,N-Diethyl-2-(3-(trifluoromethyl)-4,5,6,7-tetrahydro-1H-indazol-1-yl)acetamide]
TbTryS activity in words (TbTryS): retained some inhibitory activity | IC50 (TbTryS; TbTryS IC50): 15 µM
